Test results: paper PMC9556435 (2022)

How the values were obtained:
[1] = system: VEGF-G4 (DNA, G4) CAGGGCGGGCCTTGGGCGGGAT; assay: 1H NMR titration; details: 50 mM K+; 150 μM DNA, pH 7, 25 °C, DMSO-d6 < 1.5%
[2] = system: KRAS-G4 (Pu24m1) (DNA, G4) TGAGGGCGGTGTGGGAATAGGGAA; assay: CD melting (264 nm); details: 15 mM K+; potassium phosphate/KCl, pH 7; 20 μM DNA, 2 equivalents compound
[3] = system: KRAS-G4 (Pu24m1) (DNA, G4) TGAGGGCGGTGTGGGAATAGGGAA; assay: fluorescence titration; details: 50 mM K+; pH 7; 0.2 μM compound fixed, titrated with DNA; 2:1 binding equation
[4] = system: KRAS-G4 (Pu24m1) (DNA, G4) TGAGGGCGGTGTGGGAATAGGGAA; assay: NMR solution structure; details: 50 mM K+; 1.5 mM DNA, pH 7, DMSO-d6 < 3.5%; stacks on both outer tetrads
[5] = system: MYC-G4 (DNA, G4) TGAGGGTGGGTAGGGTGGGTAA; assay: 1H NMR titration; details: 50 mM K+; 150 μM DNA, pH 7, 25 °C, DMSO-d6 < 1.5%

| SMILES | binding [1] | ΔTm [2] | Kd [3] | binding [4] | binding [5] |
| --- | --- | --- | --- | --- | --- |
| c1c2c(cc3c1OCO3)-c1cc3ccc4c(c3c[n+]1CC2)OCO4 | yes | 19 °C | 0.50 µM | yes | yes |
| COc1ccc2cc3[n+](cc2c1OC)CCc1cc2c(cc1-3)OCO2 | yes | 15 °C | 0.55 µM | yes | yes |
